Data published in the NIST ThermoML archive (doi:10.1021/je030226s).

Key:
[1] = refractive index (Na D-line) (dimensionless); details: 101.33 kPa, Liquid
[2] = 101.32 kPa, Liquid
[3] = refractive index (Na D-line) (dimensionless); xn = mol fraction of the nth substance listed; details: 101.32 kPa, Liquid
[4] = xn = mol fraction of the nth substance listed; details: 101.32 kPa, Liquid

CCCCCl [1-chlorobutane]
Details	mass density, 288.15 K [kg/m3]	mass density, 298.15 K [kg/m3]	mass density, 308.15 K [kg/m3]	refractive index, 288.15 K	refractive index, 298.15 K	refractive index, 308.15 K	viscosity, 288.15 K [mPa·s]	viscosity, 298.15 K [mPa·s]	viscosity, 308.15 K [mPa·s]
[1]	–	–	–	1.4045	1.3993	1.3941	–	–	–
[2]	892.2	881	869.7	–	–	–	0.472	0.423	0.382

CCCCCl [1-chlorobutane] + CCO
Details	mass density, 288.15 K [kg/m3]	mass density, 298.15 K [kg/m3]	mass density, 308.15 K [kg/m3]	refractive index, 288.15 K	refractive index, 298.15 K	refractive index, 308.15 K	viscosity, 288.15 K [mPa·s]	viscosity, 298.15 K [mPa·s]	viscosity, 308.15 K [mPa·s]
[3], x2 = 0	–	–	–	1.4045	1.3993	1.3941	–	–	–
[3], x2 = 0.05	–	–	–	1.403	1.3978	1.3925	–	–	–
[3], x2 = 0.1	–	–	–	1.4016	1.3964	1.3912	–	–	–
[3], x2 = 0.2	–	–	–	1.3988	1.3937	1.3885	–	–	–
[3], x2 = 0.3	–	–	–	1.3958	1.3907	1.3855	–	–	–
[3], x2 = 0.4	–	–	–	1.3925	1.3875	1.3823	–	–	–
[3], x2 = 0.5	–	–	–	1.389	1.384	1.3788	–	–	–
[3], x2 = 0.6	–	–	–	1.3851	1.3802	1.375	–	–	–
[3], x2 = 0.7	–	–	–	1.3807	1.3759	1.3708	–	–	–
[3], x2 = 0.8	–	–	–	1.3756	1.3711	1.3661	–	–	–
[3], x2 = 0.9	–	–	–	1.3697	1.3653	1.3609	–	–	–
[3], x2 = 0.95	–	–	–	1.3665	1.3624	1.3581	–	–	–
[4], x2 = 0	892.2	881	869.7	–	–	–	0.472	0.423	0.382
[4], x2 = 0.05	888.5	877.3	866	–	–	–	0.475	0.424	0.384
[4], x2 = 0.1	885.3	874.2	862.8	–	–	–	0.479	0.428	0.388
[4], x2 = 0.2	878.7	867.7	856.4	–	–	–	0.5	0.442	0.395
[4], x2 = 0.3	871.7	860.8	849.7	–	–	–	0.529	0.465	0.41
[4], x2 = 0.4	864.1	853.4	842.4	–	–	–	0.566	0.493	0.43
[4], x2 = 0.5	855.7	845.2	834.5	–	–	–	0.63	0.543	0.469
[4], x2 = 0.6	846.4	836.1	825.7	–	–	–	0.708	0.601	0.515
[4], x2 = 0.7	835.8	825.9	815.8	–	–	–	0.807	0.68	0.581
[4], x2 = 0.8	823.9	814.4	804.7	–	–	–	0.932	0.781	0.67
[4], x2 = 0.9	810	800.9	791.7	–	–	–	1.099	0.903	0.765
[4], x2 = 0.95	802.2	793.4	784.5	–	–	–	1.209	0.994	0.839
